Test results as given in patent US6652865B2, “Method and formulation for decreasing statin metabolism” (Gattefosse Holding, priority 2001, dated 2003).

System: human intestinal microsomes
Test: Reduction in the intestinal barrier effect: simvastatin remaining after incubation with human intestinal microsomes
Settings: 12 μmol, 1 mg/ml microsomes, 37° C.
Protocol: The test is carried out in vitro using human intestinal microsomes containing:
0.09 nmol/mg of cytochromes P450,
0.77 nmol/min/mg of cytochromes P450 3 A 4.
1 mg/ml of microsomes is then placed in contact:
with a regenerating system having the following composition:
followed by equilibration at 37° C. for 3 minutes.
100 μl aliquots are mixed with a solution of 400 μl of a 50/50 mixture of ice and acetonitrile at 0, 15, 30, 60, 120 and 180 minutes. Testosterone is tested in parallel as control component.
The conditions for carrying out the HPLC are as follows:
The mass spectrometer used is known under the reference PE SCIEX 150.

C[C@]12CC[C@H]3[C@@H](CCC4=CC(=O)CC[C@@]43C)[C@@H]1CC[C@@H]2O [TESTOSTERONE, Testosterone]
PERCENTAGE REMAINING (time 0 min): 100% | PERCENTAGE REMAINING (time 15 min): completely disappeared | PERCENTAGE REMAINING (time 180 min): 0%
